Results on 21 compounds are retold here after patent publication US11530211B2, “Dihydroindolizinone derivative” (DAIICHI SANKYO COMPANY, LIMITED, priority 2018, dated 2022).

SMILES strings stand for the structures. Read-outs that look alike come from different tables or passages of the source.

Experiment [1] deals with human iPS cell Toe strain. The experiment is described as follows: Effect to promote differentiation from human iPS cells into insulin-producing cells (insulin-positive cell rate, imaging). The note with it: for EC50: efficacy of 10 μM of the compound of Example 1 taken as 100%, 0.01 to 10 μM, read-out: E050; for Activity: sum of activity values at 2 μM and 10 μM compared with positive control (compound of Example 1), added at stages 3 to 5. In kind it is cell-based. Details: key to Activity: +: the sum of activity values at the two concentrations was obviously higher than the control untreated with compounds while being lower than the positive control; ++: the sum was equivalent to the positive control; +++: the sum was higher than the positive control. An excerpt:
The evaluation system of the effect (efficacy) to promote differentiation from human iPS cells into insulin-producing cells was constructed with reference to known information (Non Patent Document 6). Further, the medium used in each differentiation stage was also produced with reference to known information (differentiation media A to E (Media A to E) described in Non Patent Document 6 were used respectively for stages 1 to 5; however, a medium free from GLP-1 receptor agonist and nicotinamide was used as differentiation medium E).
In order to evaluate the efficacy of each compound, the compound of Example 1 was used as a positive control, and dimethylsulfoxide (DMSO) (SIGMA, D2650) with a final concentration of 0.1% was used as a control untreated with compounds. […] In the following evaluation, the compound solutions were added to the medium to 0.1% that is the final concentration of DMSO. First, induction from human iPS cell Toe strain (National Institutes of Biomedical Innovation, Health and Nutrition) into cells on day 7 of culture (2 days after replacement with differentiation medium C (cells in the differentiation process from FOXA2-positive primitive gut tube cells into PDX1-positive pancreatic progenitor cells)) was performed according to the method of Non Patent Document 6 for “inducing differentiation from human iPS cells into pancreatic β cells”, and the cells were collected and thereafter stored in liquid nitrogen using Bambanker (NIPPON Genetics Co, Ltd.) at 1×10^7 cells/mL/tube, to produce a cell stock for evaluation. The cell stock was dissolved at the start of the evaluation of efficacy, suspended in differentiation medium C for stage 3 (DMEM high glucose (Life technologies, 11965092), 0.25 μM SANT-1, 0.1 μM LDN193189 (Stemgent, 04-0074), 10 μM SB431542, 2 μM Retinoic acid (Stemgent, 04-0021), 1% B27 serum free supplement (Life technologies, 17504044) and thereafter seeded in a 96-well plate (Corning, #3340) coated with Synthemax II (Corning, #5656) at 1×10^5 cells/well. After culturing for 2 days, the medium was removed, and new differentiation medium C for stage 3 with the compound or only DMSO added was added thereto at 100 μL/well. After culturing for 2 days, the medium was removed, and new differentiation medium D for stage 4 (DMEM high glucose, 0.1 μM LDN193189, 5 μM TGF-β type I receptor kinase inhibitor II (Calbiochem 616452), 0.3 μM (−)-indolactam V (Enzo life science ALX-420-011-C300), 1% B27 serum free supplement) with the compound or only DMSO added was added thereto at 100 μL/well. After culturing for 2 to 3 days, the medium was removed, and new differentiation medium E for stage 5 (GLP-1 receptor agonist and nicotinamide-free; Knockout […] (Life technologies, 12660012), 1% B27 serum free supplement) with the compound or only DMSO added was added thereto at 200 μL/well. After culturing for 2 days, the medium was removed, and a 4% paraformaldehyde phosphorus acid buffer (Wako, 163-20145) was added thereto at 150 μL/well and left standing for 30 to 60 minutes at room temperature to fix the cells. A phosphorus acid buffer (PBS) (Takara, T9181) containing 1% Triton X-100 (Sigma, T8787) was left standing for 15 minutes at room temperature, then washed with PBS-T (Takara, T9183), and was blocked for 1 hour using 20% Blocking One (Nacalai tesque, Tokyo, Japan) diluted with PBS-T at room temperature. After the removal of Blocking One, guinea pig anti-insulin antibody (Abcam, ab7842) diluted 200-fold with 20% Blocking One was added thereto at 50 μL/well, followed by standing at 4° C. overnight. After washing with PBS-T 3 times, […]-labeled anti-guinea pig antibody (Life Technologies, A11075) diluted 1000-fold with 20% Blocking One and 6-diamidino-2-phenylindole (DAPI) (Roche Diagnostics, Basel, Switzerland) were added thereto, followed by standing at room temperature for 2 hours. After washing with PBS-T 3 times, the fluorescence images of the cells were analyzed. […]

The target of another experiment is T1, UCHL1 (Homo sapiens, UniProt P09936).
T1 sequence (P09936 1-223): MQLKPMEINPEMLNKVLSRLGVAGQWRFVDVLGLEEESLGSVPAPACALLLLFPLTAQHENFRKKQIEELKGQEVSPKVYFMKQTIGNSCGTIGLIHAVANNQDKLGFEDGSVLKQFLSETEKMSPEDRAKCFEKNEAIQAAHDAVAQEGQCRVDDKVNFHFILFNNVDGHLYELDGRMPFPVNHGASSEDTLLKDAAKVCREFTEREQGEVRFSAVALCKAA
The experiment is described as follows: Evaluation of UCHL1 activation (ubiquitin-AMC hydrolysis). Conditions: test compound 10 μM; control (DMSO) = 100; fluorescence increment 10 minutes to 2 hours; n=3.

Experimental for UCHL1: Using dimethylsulfoxide (DMSO) (SIGMA, D2650) as a control untreated with compounds (which will be hereinafter referred to as control), each test compound was dissolved in DMSO in use. DMSO and the test compound solutions were each added to the enzymatic reaction solution to a final concentration of 2%. […] The amount of fluorescence (excitation wavelength: 350 nm and fluorescence wavelength: 440 nm) of AMC generated due to hydrolysis of the fluorescence-labeled substrate was measured 10 minutes and 2 hours after the start of the enzymatic reaction, to calculate the increment in amount of fluorescence by subtraction between the two.
The amount of fluorescence of AMC was measured using Envision (PerkinElmer). The increment in amount of fluorescence of the control was taken as 100%, and the increment in amount of fluorescence of each test compound was expressed as a percentage (%) based on this, to obtain an enzymatic activity value. Enzymatic activity value (%)={(Amount of fluorescence increment of each test compound)/(Amount of fluorescence increment of control)}×100

For `O=C1CCC(C(=O)Nc2ncc(-c3ccc(OC(F)(F)F)cc3)s2)n2cccc21` (single isomer, unassigned) [Example 10a], in experiment [1], the EC50 turned out to be 1200 nM and the Activity entry was “+++”.
On the same counts, the results for `O=C1CCC(C(=O)Nc2ncc(-c3ccc(OC(F)(F)F)cc3)s2)n2cccc21` (single isomer, unassigned) [Example 10b] are 220 nM and “+++”.
For the compound `Cc1nc(NC(=O)C2CCC(=O)c3cccn32)sc1-c1ccc(OC(C)(C)C)cc1` (single isomer, unassigned) [Example 101a], the Activity result in experiment [1] is recorded as “+”.
As to `Cc1nc(NC(=O)C2CCC(=O)c3cccn32)sc1-c1ccc(OC(C)(C)C)cc1` (single isomer, unassigned) [Example 101b], the EC50 in experiment [1] (Homo sapiens) worked out at 90 nM. Further, the Activity result in experiment [1] is “+++”. The “Enzyme activity (c/o)” value on UCHL1 turned out to be 318 c/o.
On to `O=C1CCC(C(=O)Nc2ncc(-c3ccccc3)s2)n2cccc21` (centres unmarked) [Example 1, 8-Oxo-N-(5-phenylthiazol-2-yl)-6,7-dihydro-5H-indolizine-5-carboxamide], for which, in experiment [1] (Homo sapiens), the EC50 stood at 5800 nM.
Turning to `CC(C)(C)Oc1ccc(-c2cnc(NC(=O)C3CCC(=O)c4cccn43)s2)cc1` (centres unmarked) [Example 11, N-[5-(4-Tert-butoxyphenyl)thiazol-2-yl]-8-oxo-6,7-dihydro-5H-indolizine-5-carboxamide], the EC50 in experiment [1] (Homo sapiens) came out at 490 nM.
Turning to `Cc1ccc(-c2cnc(NC(=O)C3CCC(=O)c4cccn43)s2)cc1` (centres unmarked) [Example 18], the Activity entry in experiment [1] was “++”.
In the case of `O=C1CCC(C(=O)Nc2ncc(-c3ccc(C(F)(F)F)cc3)s2)n2cccc21` (centres unmarked) [Example 21, 8-Oxo-N-[5-[4-(trifluoromethyl)phenyl]thiazol-2-yl]-6,7-dihydro-5H-indolizine-5-carboxamide], in experiment [1] (Homo sapiens), the EC50 stood at 450 nM.
For the compound `O=C1CCC(C(=O)Nc2ncc(-c3ccc4ccccc4c3)s2)n2cccc21` (centres unmarked) [Example 24, N-[5-(2-Naphthyl)thiazol-2-yl]-8-oxo-6,7-dihydro-5H-indolizine-5-carboxamide], in experiment [1], the Activity entry is “+”.
In the case of `O=C1CCC(C(=O)Nc2ncc(-c3ccc(OC(F)(F)F)c(Cl)c3)s2)n2cccc21` (centres unmarked) [Example 30, N-[5-[3-Chloro-4-(trifluoromethoxy)phenyl]thiazol-2-yl]-8-oxo-6,7-dihydro-5H-indolizine-5-carboxamide], the EC50 in experiment [1] (Homo sapiens) worked out at 1000 nM.
On the same count and under the same terms, with `Cc1nc(NC(=O)C2CCC(=O)c3cccn32)sc1-c1ccc(OC(C)(C)C)cc1` (centres unmarked) [Example 35, N-[5-(4-tert-Butoxyphenyl)-4-methylthiazol-2-yl]-8-oxo-6,7-dihydro-5H-indolizine-5-carboxamide] the figure was 250 nM; with `Cc1nc(NC(=O)C2CCC(=O)c3cccn32)sc1-c1ccc(OC(F)(F)F)cc1` (centres unmarked) [Example 36, N-[4-Methyl-5-[4-(trifluoromethoxy)phenyl]thiazol-2-yl]-8-oxo-6,7-dihydro-5H-indolizine-5-carboxamide], 310 nM.
For `O=C1CCC(C(=O)Nc2ncc(-c3ccc4c(c3)OC(F)(F)O4)s2)n2cccc21` (centres unmarked) [Example 40, N-[5-(2,2-Difluoro-1,3-benzodioxol-5-yl)thiazol-2-yl]-8-oxo-6,7-dihydro-5H-indolizine-5-carboxamide], the EC50 in experiment [1] (Homo sapiens) is 820 nM.
For the compound `O=C1CCC(C(=O)Nc2ncc(-c3ccc(OCc4ccccc4)c(F)c3)s2)n2cccc21` (centres unmarked) [Example 43, N-[5-(4-Benzyloxy-3-fluorophenyl)thiazol-2-yl]-8-oxo-6,7-dihydro-5H-indolizine-5-carboxamide], in experiment [1] (Homo sapiens), the EC50 was determined as 190 nM.
Regarding `O=C1CCC(C(=O)Nc2ncc(-c3ccc(OCC(F)(F)F)cc3)s2)n2cccc21` (centres unmarked) [Example 45, 8-Oxo-N-[5-[4-(2,2,2-trifluoroethoxy)phenyl]thiazol-2-yl]-6,7-dihydro-5H-indolizine-5-carboxamide], the EC50 in experiment [1] (Homo sapiens) is 130 nM.
On to `O=C1CCC(C(=O)Nc2ncc(-c3ccc(Oc4ccccc4)cc3)s2)n2cccc21` (centres unmarked) [Example 46, 8-Oxo-N-[5-(4-phenoxyphenyl)thiazol-2-yl]-6,7-dihydro-5H-indolizine-5-carboxamide], for which the EC50 in experiment [1] (Homo sapiens) stood at 540 nM.
On the same count and under the same terms, with `O=C1CC(C(=O)Nc2ncc(-c3ccc(OC(F)(F)F)cc3)s2)n2cccc21` (centres unmarked) [Example 58] the figure was 1600 nM; with `O=C1CCC(C(=O)Nc2nc3ccc(-c4ccc(OC(F)(F)F)cc4)cc3s2)n2cccc21` (centres unmarked) [Example 59, 8-Oxo-N-[6-[4-(trifluoromethoxy)phenyl]-1,3-benzothiazol-2-yl]-6,7-dihydro-5H-indolizine-5-carboxamide], 540 nM.
The same measure, in the same setting: with `CC1(C(=O)Nc2ncc(-c3ccc(OC(F)(F)F)cc3)s2)CCC(=O)c2cccn21` (centres unmarked) [Example 65] the figure was 1800 nM.
Turning to `Cc1nc(NC(=O)C2CCC(=O)c3cccn32)sc1-c1ccc(OCC(F)(F)F)cc1` (centres unmarked) [Example 88, N-[4-Methyl-5-[4-(2,2,2-trifluoroethoxy)phenyl]thiazol-2-yl]-8-oxo-6,7-dihydro-5H-indolizine-5-carboxamide], the EC50 in experiment [1] (Homo sapiens) worked out at 240 nM. The “Enzyme activity (c/o)” value at UCHL1 is 422 c/o.
Consider `O=C1CCC(C(=O)Nc2nc3ccc(-c4ccc(Cl)cc4)cc3s2)n2cccc21` (centres unmarked) [Example 93, N-[6-(4-Chlorophenyl)-1,3-benzothiazol-2-yl]-8-oxo-6,7-dihydro-5H-indolizine-5-carboxamide], for which the EC50 in experiment [1] (Homo sapiens) was 290 nM.
